The text below walks through data of patent publication US20240025875A1, “A COMPOUND AS A THYROID HORMONE BETA RECEPTOR AGONIST AND USE THEREOF” (SUNSHINE LAKE PHARMA CO., LTD., priority 2020, published 2024).

Experiment [1] addresses T1, TRβ (Homo sapiens, UniProt P10828).
T1 construct: 5 μL of 4×TR beta/alfa-LBD; purchased Invitrogen PV4686
T1 sequence (P10828 217-461 limits assumed): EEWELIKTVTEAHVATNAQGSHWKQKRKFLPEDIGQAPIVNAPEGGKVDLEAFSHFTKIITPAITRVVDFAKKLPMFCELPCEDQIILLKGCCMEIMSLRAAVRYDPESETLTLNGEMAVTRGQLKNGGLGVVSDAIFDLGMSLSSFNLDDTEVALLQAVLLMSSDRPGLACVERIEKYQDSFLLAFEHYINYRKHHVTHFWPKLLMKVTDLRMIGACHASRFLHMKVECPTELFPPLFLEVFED
The experiment in a line: LanthaScreen TR-FRET Thyroid Receptor beta Coactivator Assay (in vitro binding activity). The note with it: TR beta-LBD. On the procedure:
(§1) 2. Detection of the Binding Activity of the Compound of the Present Invention to TRα or TRβ In Vitro
(§2) Test Materials • LanthaScreen TR-FRET Thyroid Receptor beta Coactivator Assay kit was purchased from Invitrogen, Cat. No. PV4686; • LanthaScreen TR-FRET Thyroid Receptor alfa Coactivator Assay kit was purchased from Invitrogen, Cat. No. PV4687.
(§3) The method was experimented with LanthaScreen TR-FRET Thyroid Receptor beta/alfa Coactivator Assay kit. The test compound was dissolved in DMSO and diluted 3 times to a total of 10 concentrations, and then diluted with TR-FRET Coregulator Buffer C in the kit to form a solution containing 2% DMSO, 10 μL of the solution containing 2% DMSO was taken into a 384-well plate, then 5 μL of 4×TR beta/alfa-LBD, 5 μL of a mixture containing 0.4 μM fluorescein-SRC2-2 and 8 nM Tb anti-GST antibody were added into each well, mixed thoroughly, and incubated at room temperature for 1 h in the dark. After 1 h, BMG LABTECH's PHERAstar FSX microplate reader was used to read the fluorescence value (RFU) at […]. The TR-FRET ratio was calculated by dividing the emission signal at 520 nm by the emission signal at 495 nm. Graph Pad Prism 5 software was used to draw the curve and calculate the EC50 value. The in vitro binding activity test results of some of the compounds of the examples of the present invention are shown in Table 1 below.

The target of experiment [2] is T2, TRα (Homo sapiens, UniProt P10827).
T2 construct: 5 μL of 4×TR beta/alfa-LBD; purchased Invitrogen PV4687
T2 sequence (P10827 163-410 isoform P10827-2 limits assumed, other chains not shown): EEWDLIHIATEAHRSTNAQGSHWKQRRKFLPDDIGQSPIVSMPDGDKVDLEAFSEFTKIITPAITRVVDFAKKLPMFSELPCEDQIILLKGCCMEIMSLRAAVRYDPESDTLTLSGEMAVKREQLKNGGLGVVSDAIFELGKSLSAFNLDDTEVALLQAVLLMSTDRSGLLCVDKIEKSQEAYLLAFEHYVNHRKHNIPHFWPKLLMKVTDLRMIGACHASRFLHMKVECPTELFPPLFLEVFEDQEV
The experiment in a line: LanthaScreen TR-FRET Thyroid Receptor alfa Coactivator Assay (in vitro binding activity). The settings on record: TR alfa-LBD. On the procedure: as §1, §2, §3

Consider `N#Cc1nn(-c2cc(Cl)c(Oc3ccc4c(c3)CCNC4=O)c(Cl)c2)c(=O)[nH]c1=O` [Example 1, 2-(3,5-dichloro-4-((1-oxo-1,2,3,4-tetrahydroisoquinolin-6-yl)oxy)phenyl)-3,5-dioxo-2,3,4,5-tetrahydro-1,2,4-triazine-6-carbonitrile], for which the EC50 in experiment [1] was 0.26 µM; in experiment [2], above 100 µM.

Take `CN1CCc2cc(Oc3c(Cl)cc(-n4nc(C#N)c(=O)[nH]c4=O)cc3Cl)ccc2C1=O` [Example 2, 2-(3,5-dichloro-4-((2-methyl-1-oxo-1,2,3,4-tetrahydroisoquinolin-6-yl)oxy)phenyl)-3,5-dioxo-2,3,4,5-tetrahydro-1,2,4-triazine-6-carbonitrile]: the concentration giving a half-maximal response (EC50) was 0.1 µM in experiment [1] and 1.47 µM in experiment [2].

Turning to `COCN1CCc2cc(Oc3c(Cl)cc(-n4nc(C#N)c(=O)[nH]c4=O)cc3Cl)ccc2C1=O` [Example 3, 2-(3,5-dichloro-4-((2-(methoxymethyl)-1-oxo-1,2,3,4-tetrahydroisoquinolin-6-yl)oxy)phenyl)-3,5-dioxo-2,3,4,5-tetrahydro-1,2,4-triazine-6-carbonitrile], the EC50 in experiment [1] is 0.026 µM; in experiment [2] it was 0.29 µM.

Take `CCOCN1CCc2cc(Oc3c(Cl)cc(-n4nc(C#N)c(=O)[nH]c4=O)cc3Cl)ccc2C1=O` [Example 4, 2-(3,5-dichloro-4-((2-(ethoxymethyl)-1-oxo-1,2,3,4-tetrahydroisoquinolin-6-yl)oxy)phenyl)-3,5-dioxo-2,3,4,5-tetrahydro-1,2,4-triazine-6-carbonitrile]: the EC50 in experiment [1] amounted to 0.018 µM; in experiment [2], 0.21 µM.

In the case of `CCN1CCc2cc(Oc3c(Cl)cc(-n4nc(C#N)c(=O)[nH]c4=O)cc3Cl)ccc2C1=O` [Example 5, 2-(3,5-dichloro-4-((2-ethyl-1-oxo-1,2,3,4-tetrahydroisoquinolin-6-yl)oxy)phenyl)-3,5-dioxo-2,3,4,5-tetrahydro-1,2,4-triazine-6-carbonitrile], the EC50 in experiment [1] turned out to be 0.014 µM; in experiment [2], 0.074 µM.

In the case of `N#Cc1nn(-c2cc(Cl)c(Oc3ccc4c(c3)CCCNC4=O)c(Cl)c2)c(=O)[nH]c1=O` [Example 7, 2-(3,5-Dichloro-4-((1-oxo-2,3,4,5-tetrahydro-2H-benzo[c]azepin-7-yl)oxy)phenyl)-3,5-dioxo-2,3,4,5-tetrahydro-1,2,4-triazine-6-carbonitrile], the EC50 in experiment [1] stood at 0.092 µM; in experiment [2], 0.95 µM.

`N#Cc1nn(-c2cc(Cl)c(Oc3ccc4c(c3)NC(=O)CC4)c(Cl)c2)c(=O)[nH]c1=O` [Example 8, 2-(3,5-dichloro-4-((2-oxo-1,2,3,4-tetrahydroquinolin-7-yl)oxy)phenyl)-3,5-dioxo-2,3,4,5-tetrahydro-1,2,4-triazine-6-carbonitrile]: the EC50 in experiment [1] was above 10 µM; in experiment [2], above 100 µM.

Take `N#Cc1nn(-c2cc(Cl)c(Oc3ccc4c(c3)C(=O)NCC4)c(Cl)c2)c(=O)[nH]c1=O` [Example 9, 2-(3,5-dichloro-4-((1-oxo-1,2,3,4-tetrahydroisoquinolin-7-yl)oxy)phenyl)-3,5-dioxo-2,3,4,5-tetrahydro-1,2,4-triazine-6-carbonitrile]: the half-maximal effective concentration (EC50) is above 10 µM in experiment [1] and above 100 µM in experiment [2].

With `COCCN1CCc2cc(Oc3c(Cl)cc(-n4nc(C#N)c(=O)[nH]c4=O)cc3Cl)ccc2C1=O` [Example 10, 2-(3,5-Dichloro-4-((2-(2-methoxyethyl)-1-oxo-1,2,3,4-tetrahydroisoquinolin-6-yl)oxy)phenyl)-3,5-dioxo-2,3,4,5-tetrahydro-1,2,4-triazine-6-carbonitrile], the EC50 came to 0.049 µM in experiment [1] and 0.206 µM in experiment [2].

Turning to `N#Cc1nn(-c2cc(Cl)c(Oc3ccc4c(c3)CCN(CC3CCOCC3)C4=O)c(Cl)c2)c(=O)[nH]c1=O` [Example 12, 2-(3,5-Dichloro-4-((1-oxo-2-((tetrahydro-2H-pyran-4-yl)methyl)-1,2,3,4-tetrahydroisoquinolin-6-yl)oxy)phenyl)-3,5-dioxo-2,3,4,5-tetrahydro-1,2,4-triazine-6-carbonitrile], the values for the EC50 in experiment [1] and in experiment [2] were 0.021 µM and 0.451 µM, respectively.

For the compound `CC(C)OCN1CCc2cc(Oc3c(Cl)cc(-n4nc(C#N)c(=O)[nH]c4=O)cc3Cl)ccc2C1=O` [Example 13, 2-(3,5-Dichloro-4-((2-(isopropoxymethyl)-1-oxo-1,2,3,4-tetrahydroisoquinolin-6-yl)oxy)phenyl)-3,5-dioxo-2,3,4,5-tetrahydro-1,2,4-triazine-6-carbonitrile], the concentration giving a half-maximal response (EC50) in experiment [1] turned out to be 0.013 µM; in experiment [2], 0.073 µM.

Consider `N#Cc1nn(-c2cc(Cl)c(Oc3ccc4c(c3)CCN(COCC(F)(F)F)C4=O)c(Cl)c2)c(=O)[nH]c1=O` [Example 14, 2-(3,5-Dichloro-4-((1-oxo-2-((2,2,2-trifluoroethoxy)methyl)-1,2,3,4-tetrahydroisoquinolin-6-yl)oxy)phenyl)-3,5-dioxo-2,3,4,5-tetrahydro-1,2,4-triazine-6-carbonitrile], for which the EC50 is 0.03 µM in experiment [1] and 0.226 µM in experiment [2].

Regarding `N#Cc1nn(-c2cc(Cl)c(Oc3ccc4c(c3)CCN(COCC(F)F)C4=O)c(Cl)c2)c(=O)[nH]c1=O` [Example 15, 2-(3,5-dichloro-4-((1-oxo-2-((2,2-difluoroethoxy)methyl)-1,2,3,4-tetrahydroisoquinolin-6-yl)oxy)phenyl)-3,5-dioxo-2,3,4,5-tetrahydro-1,2,4-triazine-6-carbonitrile], the results for the EC50 in experiment [1] and in experiment [2] were 0.024 µM and 0.176 µM, respectively.

`CCOC(C)N1CCc2cc(Oc3c(Cl)cc(-n4nc(C#N)c(=O)[nH]c4=O)cc3Cl)ccc2C1=O` (stereo not drawn) [Example 16, 2-(3,5-dichloro-4-((2-(1-ethoxyethyl)-1-oxo-1,2,3,4-tetrahydroisoquinolin-yl)oxy)phenyl)-3,5-dioxo-2,3,4,5-tetrahydro-1,2,4-triazine-6-carbonitrile]: the results for the EC50 in experiment [1] and in experiment [2] were 0.022 µM and 0.211 µM, respectively.

Consider `O=C1NCCc2cc(Oc3c(Cl)cc(-n4ncc(=O)[nH]c4=O)cc3Cl)ccc21` [Example 17, 2-(3,5-Dichloro-4-((1-oxo-1,2,3,4-tetrahydroisoquinolin-6-yl)oxy)phenyl)-1,2,4-triazine-3,5(2H,4H)-dione], for which the EC50 turned out to be 0.034 µM in experiment [1] and 0.311 µM in experiment [2].

In the case of `N#Cc1nn(-c2cc(Cl)c(Oc3ccc4c(c3)CCN(Cc3ccccc3)C4=O)c(Cl)c2)c(=O)[nH]c1=O` [Example 18, 2-(4-((2-Benzyl-1-oxo-1,2,3,4-tetrahydroisoquinolin-6-yl)oxy)-3,5-dichlorophenyl)-3,5-dioxo-2,3,4,5-tetrahydro-1,2,4-triazine-6-carbonitrile], the concentration for a half-maximal effect (EC50) is 0.192 µM in experiment [1] and above 100 µM in experiment [2].

As for `N#Cc1nn(-c2cc(Cl)c(Oc3ccc4c(=O)[nH]ccc4c3)c(Cl)c2)c(=O)[nH]c1=O` [Example 19, 2-(3,5-Dichloro-4-((1-oxo-1,2-dihydroisoquinolin-6-yl)oxy)phenyl)-3,5-dioxo-2,3,4,5-tetrahydro-1,2,4-triazine-6-carbonitrile], the EC50 is 0.501 µM in experiment [1] and above 100 µM in experiment [2].

Regarding `N#Cc1nn(-c2cc(Cl)c(Oc3ccc4c(c3)CCN(Cc3ccc(F)cc3)C4=O)c(Cl)c2)c(=O)[nH]c1=O` [Example 20d, 2-(3,5-dichloro-4-((2-(4-fluorobenzyl)-1-oxo-1,2,3,4-tetrahydroisoquinolin-6-yl)oxy)phenyl)-3,5-dioxo-2,3,4,5-tetrahydro-1,2,4-triazine-6-carbonitrile], the EC50 in experiment [1] is 0.534 µM; in experiment [2], above 100 µM.

For the compound `Cc1ccc(CN2CCc3cc(Oc4c(Cl)cc(-n5nc(C#N)c(=O)[nH]c5=O)cc4Cl)ccc3C2=O)cc1` [Example 21d, 2-(3,5-dichloro-4-((2-(4-methylbenzyl)-1-oxo-1,2,3,4-tetrahydroisoquinolin-6-yl)oxy)phenyl)-3,5-dioxo-2,3,4,5-tetrahydro-1,2,4-triazine-6-carbonitrile], the figures for the half-maximal effective concentration (EC50) in experiment [1] and in experiment [2] were 0.368 µM and above 100 µM, respectively.

With `O=C1c2ccc(Oc3c(Cl)cc(-n4ncc(=O)[nH]c4=O)cc3Cl)cc2CCN1Cc1ccccc1` [Example 22, 2-(4-((2-benzyl-1-oxo-1,2,3,4-tetrahydroisoquinolin-6-yl)oxy)-3,5-dichlorophenyl)-1,2,4-triazine-3,5(2H,4H)-dione], the results for the 50% effective concentration (EC50) in experiment [1] and in experiment [2] were 0.011 µM and 0.156 µM, respectively.

For `O=C1c2ccc(Oc3c(Cl)cc(-n4ncc(=O)[nH]c4=O)cc3Cl)cc2CCN1CC1CCOCC1` [Example 23, 2-(3,5-dichloro-4-((1-oxo-2-((tetrahydro-2H-pyran-4-yl)methyl)-1,2,3,4-tetrahydroisoquinolin-6-yl)oxy)phenyl)-1,2,4-triazine-3,5(2H,4H)-dione], the EC50 is 0.013 µM in experiment [1] and 0.386 µM in experiment [2].
